According to patent EP0511845B1, “Pesticidal 1-aryl-5-(substituted alkylideneimino)-pyrazoles” (AVENTIS CROPSCIENCE S.A., priority 1991, dated 1992):

Legend:
Format in all cases: in vivo
[1] = system: Schizaphis graminum; assay: Greenbug on sorghum - systemic evaluation (soil drench); conditions: systemic via root uptake, soil drench at soil concentrations of the protocols (10.0 or 20 ppm)
Method: (§1) For southern root-knot nematod and systemic tests for southern armyworm, cotton aphid, tobacco budworm and greenbug, a stock solution or suspension was prepared by adding 15 mg of the test compound to 250 mg of dimethylformamide, 1250 mg of acetone and 3 mg of the emulsifier blend referenced above. Water was then added to provide a test compound concentration of 150 ppm. When necessary, sonication was provided to insure complete dispersion. Cotton aphid and tobacco budworm (on cotton) and greenbug and tobacco budworm (on sorghum) - systemic evaluation: A 7.0 ml aliquot of the 150 ppm nematode test solution was applied to deliver the equivalent of 10.0 ppm soil concentration dose as a drench to 6 cm pots containing cotton and sorghum plants. The cotton plants were previously infested with cotton aphids about two days before treatment and greenbug one day before treatment. After holding the plants about three days, the plants were rated for aphid activity. Again at six days, the plants were rated for aphid activity and the cotton aphids and greenbugs were counted and mortality was assessed. Portions of the cotton and sorghum foliage were excised, placed in separate plastic containers, and infested with second instar larvae of tobacco budworm. The potted plants were dipped in sulfotepp to kill the remaining aphids and returned to the greenhouse for regrowth. Thirteen days after treatment, the remaining foliage was excised and fed to tobacco budworms. Mortality was assessed six days after infestation. Cotton aphid and southern armyworm (on cotton) and greenbug and southern armyworm (on sorghum) - systemic evaluation: A stock solution or suspension was prepared to deliver 5 ml of a 20 ppm soil concentration dose (and subsequent dilutions) as a drench to 6 cm pots containing cotton and sorghum plants. The cotton plants were previously infested with cotton aphids about two days before treatment and greenbug one day before treatment. After holding the plants about three days, the plants were rated for aphid activity. Again at six days, the plants were rated for aphid activity and the cotton aphids and greenbugs were counted and mortality was assessed. Portions of the cotton and sorghum foliage were excised, placed in separate plastic containers, and infested with second instar larvae of southern armyworms. The potted plants were dipped in sulfotepp to kill the remaining aphids and returned to the greenhouse for regrowth. Thirteen days after treatment the remaining foliage was excised and fed to southern armyworm. Mortality was assessed six days after infestation.

[2] = system: Heliothis virescens; assay: Tobacco budworm - contact evaluation (topical application); conditions: topical or contact tests; application dose of 63 µg/g body weight
Method: For tobacco budworm contact tests, a stock solution was prepared by dissolving the compound in acetone and then further diluted to provide the required serial dilution concentrations.
Tobacco budworm - contact evaluation: The following topical application method provides an assessment of contact toxicity of a compound to tobacco budworm larvae The test compound solution at sequential two-fold dilution concentrations from 10 down to 0.16 µg/µl was applied by a microinjector in repli cated 1 µl portions to the dorsum of approximately 20 mg tobacco budworm larvae. This is equivalent to applied doses of 500 down to 8 µg/g body weight. An acetone treated control, without any test compounds, as also applied. A treated control with a commercial technical compound, cypermethrin or thiodicarb, also in acetone was used as a standard. The treated larvae were placed, individually, in separate plastic petri dishes containing an untreated cotton leaf and a moist dental wick. The treated larvae were maintained at about 27°C and 50% relative humidity. The percent mortality was rated 1 and 4 days after treatment.

[3] = system: Aphis gossypii; assay: Cotton aphid on cotton - systemic evaluation (soil drench); conditions: systemic via root uptake, soil drench at soil concentrations of the protocols (10.0 or 20 ppm)
Method: as §1

[4] = system: Heliothis virescens; assay: Tobacco budworm on sorghum - systemic evaluation (soil drench); conditions: systemic via root uptake, 10.0 ppm soil concentration
Method: For southern root-knot nematod and systemic tests for southern armyworm, cotton aphid, tobacco budworm and greenbug, a stock solution or suspension was prepared by adding 15 mg of the test compound to 250 mg of dimethylformamide, 1250 mg of acetone and 3 mg of the emulsifier blend referenced above. Water was then added to provide a test compound concentration of 150 ppm. When necessary, sonication was provided to insure complete dispersion. Cotton aphid and tobacco budworm (on cotton) and greenbug and tobacco budworm (on sorghum) - systemic evaluation: A 7.0 ml aliquot of the 150 ppm nematode test solution was applied to deliver the equivalent of 10.0 ppm soil concentration dose as a drench to 6 cm pots containing cotton and sorghum plants. The cotton plants were previously infested with cotton aphids about two days before treatment and greenbug one day before treatment. After holding the plants about three days, the plants were rated for aphid activity. Again at six days, the plants were rated for aphid activity and the cotton aphids and greenbugs were counted and mortality was assessed. Portions of the cotton and sorghum foliage were excised, placed in separate plastic containers, and infested with second instar larvae of tobacco budworm. The potted plants were dipped in sulfotepp to kill the remaining aphids and returned to the greenhouse for regrowth. Thirteen days after treatment, the remaining foliage was excised and fed to tobacco budworms. Mortality was assessed six days after infestation.

[5] = system: Spodoptera eridania; assay: Southern armyworm on cotton - systemic evaluation (soil drench); conditions: systemic via root uptake; for control of southern armyworm at thirteen days: plant not repeated, follows the cotton clause; for control of southern armyworm at six days on cotton: 20 ppm soil concentration dose (and subsequent dilutions)
Method: (§2) Cotton aphid and southern armyworm (on cotton) and greenbug and southern armyworm (on sorghum) - systemic evaluation: A stock solution or suspension was prepared to deliver 5 ml of a 20 ppm soil concentration dose (and subsequent dilutions) as a drench to 6 cm pots containing cotton and sorghum plants. The cotton plants were previously infested with cotton aphids about two days before treatment and greenbug one day before treatment. After holding the plants about three days, the plants were rated for aphid activity. Again at six days, the plants were rated for aphid activity and the cotton aphids and greenbugs were counted and mortality was assessed. Portions of the cotton and sorghum foliage were excised, placed in separate plastic containers, and infested with second instar larvae of southern armyworms. The potted plants were dipped in sulfotepp to kill the remaining aphids and returned to the greenhouse for regrowth. Thirteen days after treatment the remaining foliage was excised and fed to southern armyworm. Mortality was assessed six days after infestation.

[6] = system: Spodoptera eridania; assay: Southern armyworm on sorghum - systemic evaluation (soil drench); conditions: systemic via root uptake; for control of southern armyworm at thirteen days (sorghum): on sorghum; for control of southern armyworm after six days on sorghum: 20 ppm soil concentration dose (and subsequent dilutions)
Method: as §2

Structure (SMILES): N#Cc1nn(-c2c(Cl)cc(C(F)(F)F)cc2Cl)c(N=Cc2ccc(O)cc2)c1SC(F)(F)F [compound 4, 1-(2,6-dichloro-4-trifluoromethylphenyl]-3-cyano-4-trifluoromethylsulfenyl-5-[(4-hydroxyphenyl]methylideneimino]pyrazole]
- control of greenbug after six days on sorghum [1]: 30-100%

Structure (SMILES): COc1cc(C=Nc2c(SC(F)(F)F)c(C#N)nn2-c2c(Cl)cc(C(F)(F)F)cc2Cl)cc(OC)c1O [compound 13, 1-(2,6-dichloro-4-trifluoromethylphenyl)-3-cyano-4-trifluoromethylsulfenyl-5-[(3,5-dimethoxy-4-hydroxyphenyl)methylideneimino]pyrazole]
- control of tobacco budworm (TBW) [2]: 50-100%
- control of cotton aphid after six days on cotton [3]: 30-100%

Structure (SMILES): N#Cc1nn(-c2c(Cl)cc(C(F)(F)F)cc2Cl)c(N=Cc2ccncc2)c1SC(F)(F)F [compound 16, 1-(2,6-dichloro-4-trifluoromethylphenyl)-3-cyano-4-trifluoromethylsulfenyl-5-[(4-pyridyl)-methylideneimino]pyrazole]
- control of tobacco budworm after six days on sorghum [4]: 100%
- control of greenbug after six days on sorghum [1]: 30-100%
- control of cotton aphid after six days on cotton [3]: 30-100%

Structure (SMILES): N#Cc1nn(-c2c(Cl)cc(C(F)(F)F)cc2Cl)c(N=Cc2ccc(O)cc2O)c1SC(F)(F)F [compound 17]
- control of tobacco budworm after six days on sorghum [4]: 100%
- control of greenbug after six days on sorghum [1]: 30-100%
- control of cotton aphid after six days on cotton [3]: 30-100%

Structure (SMILES): N#Cc1nn(-c2c(Cl)cc(C(F)(F)F)cc2Cl)c(N=Cc2ccco2)c1SC(F)(F)F [compound 20]
- control of tobacco budworm after six days on sorghum [4]: 100%
- control of greenbug after six days on sorghum [1]: 30-100%

Structure (SMILES): COc1ccc(C=Nc2c(SC(F)(F)F)c(C#N)nn2-c2c(Cl)cc(C(F)(F)F)cc2Cl)cc1 [compound 21]
- control of greenbug after six days on sorghum [1]: 30-100%

Structure (SMILES): COc1cc(C=Nc2c(SC(F)(F)F)c(C#N)nn2-c2c(Cl)cc(C(F)(F)F)cc2Cl)cc(Br)c1O [compound 42]
- control of tobacco budworm (TBW) [2]: 50-100%

Structure (SMILES): COc1cccc(C=Nc2c(SC(F)(F)F)c(C#N)nn2-c2c(Cl)cc(C(F)(F)F)cc2Cl)c1O [compound 50]
- control of tobacco budworm (TBW) [2]: 50-100%

Structure (SMILES): COc1cc(C=Nc2c(SC(F)(F)F)c(C#N)nn2-c2c(Cl)cc(C(F)(F)F)cc2Cl)cc(O)c1OC [compound 59]
- control of tobacco budworm (TBW) [2]: 50-100%

Structure (SMILES): CCOc1cc(C=Nc2c(S(=O)(=O)C(F)(F)F)c(C#N)nn2-c2c(Cl)cc(C(F)(F)F)cc2Cl)ccc1O [compound 61]
- control of tobacco budworm (TBW) [2]: 50-100%

Structure (SMILES): CC(C)(C)c1cc(C=Nc2c(SC(F)(F)F)c(C#N)nn2-c2c(Cl)cc(C(F)(F)F)cc2Cl)cc(C(C)(C)C)c1O [compound 64]
- control of southern armyworm at thirteen days [5]: 30-100%

Structure (SMILES): COc1ccc(C=Nc2c(S(=O)(=O)C(F)(F)F)c(C#N)nn2-c2c(Cl)cc(C(F)(F)F)cc2Cl)cc1O [compound 65]
- control of southern armyworm at thirteen days [5]: 30-100%
- control of southern armyworm at thirteen days (sorghum) [6]: 70-100%

Structure (SMILES): Cc1cc(C=Nc2c(S(=O)(=O)C(F)(F)F)c(C#N)nn2-c2c(Cl)cc(C(F)(F)F)cc2Cl)ccc1O [compound 66]
- control of southern armyworm at thirteen days (sorghum) [6]: 70-100%

Structure (SMILES): N#Cc1nn(-c2c(Cl)cc(C(F)(F)F)cc2Cl)c(N=Cc2cc[n+]([O-])cc2)c1S(=O)(=O)C(F)(F)F [compound 68]
- control of southern armyworm at thirteen days [5]: 30-100%

Structure (SMILES): COc1cc(C=Nc2c(SC(F)(F)F)c(C#N)nn2-c2c(Cl)cc(C(F)(F)F)cc2Cl)ccc1OC(C)=O [compound 69]
- control of southern armyworm at six days on cotton [5]: 30-100%
- control of southern armyworm after six days on sorghum [6]: 30-100%
- control of tobacco budworm (TBW) [2]: 50-100%

Structure (SMILES): COc1cc(O)c(C=Nc2c(S(=O)(=O)C(F)(F)F)c(C#N)nn2-c2c(Cl)cc(C(F)(F)F)cc2Cl)c(OC)c1 [compound 72]
- control of southern armyworm after six days on sorghum [6]: 30-100%

Structure (SMILES): COc1cc(C=Nc2c(SC(F)(F)F)c(C#N)nn2-c2c(Cl)cc(C(F)(F)F)cc2Cl)cc([N+](=O)[O-])c1O [compound 74]
- control of greenbug after six days on sorghum [1]: 30-100%

Structure (SMILES): Cc1cc(C=Nc2c(SC(F)(F)Cl)c(C#N)nn2-c2c(Cl)cc(C(F)(F)F)cc2Cl)cc(C)c1O [compound 80]
- control of tobacco budworm (TBW) [2]: 50-100%

Structure (SMILES): COc1ccc(C=Nc2c(SC(F)(F)Cl)c(C#N)nn2-c2c(Cl)cc(C(F)(F)F)cc2Cl)cc1O [compound 81]
- control of tobacco budworm (TBW) [2]: 50-100%

Structure (SMILES): COc1cc(C=Nc2c(SC(F)(F)F)c(C#N)nn2-c2ncc(C(F)(F)F)cc2Cl)ccc1O [compound 87]
- control of greenbug after six days on sorghum [1]: 30-100%

Structure (SMILES): N#Cc1nn(-c2c(Cl)cc(C(F)(F)F)cc2Cl)c(N=Cc2cc(O)c(O)c(Br)c2)c1SC(F)(F)F [compound 93]
- control of greenbug after six days on sorghum [1]: 30-100%

Structure (SMILES): N#Cc1nn(-c2c(Cl)cc(C(F)(F)F)cc2Cl)c(N=Cc2ccc(O)c(Br)c2)c1SC(F)(F)F [compound 100]
- control of southern armyworm after six days on sorghum [6]: 30-100%

Structure (SMILES): COc1cc(C=Nc2c(SC)c(C#N)nn2-c2c(Cl)cc(C(F)(F)F)cc2Cl)ccc1O [compound 110]
- control of southern armyworm at thirteen days [5]: 30-100%
- control of southern armyworm at thirteen days (sorghum) [6]: 70-100%
- control of greenbug after six days on sorghum [1]: 30-100%
- control of cotton aphid after six days on cotton [3]: 30-100%

Structure (SMILES): CSc1c(C#N)nn(-c2c(Cl)cc(C(F)(F)F)cc2Cl)c1N=Cc1ccc(O)cc1 [compound 111]
- control of greenbug after six days on sorghum [1]: 30-100%
- control of cotton aphid after six days on cotton [3]: 30-100%

Structure (SMILES): N#Cc1nn(-c2c(Cl)cc(C(F)(F)F)cc2Cl)c(N=Cc2cc(C(F)(F)F)cc(C(F)(F)F)c2)c1SC(F)(F)F [compound 112]
- control of greenbug after six days on sorghum [1]: 30-100%
- control of cotton aphid after six days on cotton [3]: 30-100%

Structure (SMILES): COc1ccccc1C=Nc1c(SC(F)(F)F)c(C#N)nn1-c1c(Cl)cc(C(F)(F)F)cc1Cl [compound 113]
- control of southern armyworm at six days on cotton [5]: 30-100%

Structure (SMILES): N#Cc1nn(-c2c(Cl)cc(C(F)(F)F)cc2Cl)c(N=Cc2ncc[nH]2)c1SC(F)(F)F [compound 115]
- control of southern armyworm after six days on sorghum [6]: 30-100%

Structure (SMILES): N#Cc1cccc(C=Nc2c(SC(F)(F)F)c(C#N)nn2-c2c(Cl)cc(C(F)(F)F)cc2Cl)c1 [compound 116]
- control of tobacco budworm (TBW) [2]: 50-100%

Structure (SMILES): CCN(CC)c1ccc(C=Nc2c(SC(F)(F)F)c(C#N)nn2-c2c(Cl)cc(C(F)(F)F)cc2Cl)c(O)c1 [compound 117]
- control of southern armyworm at thirteen days (sorghum) [6]: 70-100%

Structure (SMILES): COc1cc(C=Nc2c(SC(F)(F)F)c(C#N)nn2-c2c(Cl)cc(C(F)(F)F)cc2Cl)ccc1OCc1ccccc1 [compound 120]
- control of southern armyworm at six days on cotton [5]: 30-100%

Structure (SMILES): CCCCCCCC(=O)Oc1ccc(C=Nc2c(SC(F)(F)F)c(C#N)nn2-c2c(Cl)cc(C(F)(F)F)cc2Cl)cc1OC [compound 121]
- control of southern armyworm after six days on sorghum [6]: 30-100%
